# Measured values: ChEMBL document CHEMBL3046496, “Hydrolysis and Phytotoxic Activity ofN-Aryl-3,4,5,6-tetrahydroisophthalimides” (Biosci Biotechnol Biochem, 1993)
# Key:
# Assay type in all cases: ADME, organism-based
# Scenedesmus acutus = assay: Phytotoxic activity against Scenedesmus acutus assessed as protoporphyrin-IX accumulation at 1 uM incubated for 1 hr; settings: in vivo
# [1] = Drug hydrolysis in culture medium of Echinochloa esculenta assessed as compound degradation measured at zero period in culture experiment by HPLC method; settings: read-out: Drug degradation
# [2] = Half life in culture medium of Echinochloa esculenta after 7 days by HPLC method
Structure (SMILES),degraded [1] [%],half-life [2] [h],Activity (Scenedesmus acutus) [nmol/mL]
O=C(O)C1=C(C(=O)Nc2ccc(Cl)cc2)CCCC1,–,–,17.6
C#CCOc1cc(/N=C2\OC(=O)C3=C2CCCC3)c(F)cc1Cl,32,14.4,–
O=C1O/C(=N\c2ccc(Cl)cc2F)C2=C1CCCC2,68,–,–
Cc1cc(Cl)ccc1/N=C1\OC(=O)C2=C1CCCC2,33,7.2,–
O=C1C2=C(CCCC2)C(=O)N1c1ccc(Cl)cc1 [CHLOROPHTHALIUM],–,–,68.2

# The next lines start with results.
degraded [1] [%],half-life [2] [h],Structure (SMILES),Activity (Scenedesmus acutus) [nmol/mL]
5,57.6,O=C1O/C(=N\c2ccc(OCc3ccc(Cl)cc3)cc2)C2=C1CCCC2,–
10,19.2,O=C1O/C(=N\c2ccc(Cl)cc2)C2=C1CCCC2,54.7
